Patent publication US10626112B2, “Heterocyclic sulfonamide derivative and medicine comprising same” (EA PHARMA CO., LTD., priority 2014, dated 2020)

Target: human TRPA1 (Homo sapiens (Human), UniProt O75762)
Experiment: Measurement of TRPA1 antagonist activity (1): intracellular calcium increase
Assay type: cell-based
Details: 293T cells transfected with human TRPA1 expression plasmid; allylisothiocyanate 20 μM stimulation; intracellular calcium fluorescence; read-out: hTRPA1 IC50
Summary of the method: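 HEK293T cells transiently transfected with full-length human TRPA1, loaded with Calcium4 dye in HBSS/20 mM HEPES pH 7.2. Test compound preincubated 10 min, then allylisothiocyanate added at 20 μM final and fluorescence change followed for 5 min. IC50 from sigmoid fit of percent inhibition relative to agonist and buffer controls.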

Sequence of human TRPA1 (O75762 whole entry): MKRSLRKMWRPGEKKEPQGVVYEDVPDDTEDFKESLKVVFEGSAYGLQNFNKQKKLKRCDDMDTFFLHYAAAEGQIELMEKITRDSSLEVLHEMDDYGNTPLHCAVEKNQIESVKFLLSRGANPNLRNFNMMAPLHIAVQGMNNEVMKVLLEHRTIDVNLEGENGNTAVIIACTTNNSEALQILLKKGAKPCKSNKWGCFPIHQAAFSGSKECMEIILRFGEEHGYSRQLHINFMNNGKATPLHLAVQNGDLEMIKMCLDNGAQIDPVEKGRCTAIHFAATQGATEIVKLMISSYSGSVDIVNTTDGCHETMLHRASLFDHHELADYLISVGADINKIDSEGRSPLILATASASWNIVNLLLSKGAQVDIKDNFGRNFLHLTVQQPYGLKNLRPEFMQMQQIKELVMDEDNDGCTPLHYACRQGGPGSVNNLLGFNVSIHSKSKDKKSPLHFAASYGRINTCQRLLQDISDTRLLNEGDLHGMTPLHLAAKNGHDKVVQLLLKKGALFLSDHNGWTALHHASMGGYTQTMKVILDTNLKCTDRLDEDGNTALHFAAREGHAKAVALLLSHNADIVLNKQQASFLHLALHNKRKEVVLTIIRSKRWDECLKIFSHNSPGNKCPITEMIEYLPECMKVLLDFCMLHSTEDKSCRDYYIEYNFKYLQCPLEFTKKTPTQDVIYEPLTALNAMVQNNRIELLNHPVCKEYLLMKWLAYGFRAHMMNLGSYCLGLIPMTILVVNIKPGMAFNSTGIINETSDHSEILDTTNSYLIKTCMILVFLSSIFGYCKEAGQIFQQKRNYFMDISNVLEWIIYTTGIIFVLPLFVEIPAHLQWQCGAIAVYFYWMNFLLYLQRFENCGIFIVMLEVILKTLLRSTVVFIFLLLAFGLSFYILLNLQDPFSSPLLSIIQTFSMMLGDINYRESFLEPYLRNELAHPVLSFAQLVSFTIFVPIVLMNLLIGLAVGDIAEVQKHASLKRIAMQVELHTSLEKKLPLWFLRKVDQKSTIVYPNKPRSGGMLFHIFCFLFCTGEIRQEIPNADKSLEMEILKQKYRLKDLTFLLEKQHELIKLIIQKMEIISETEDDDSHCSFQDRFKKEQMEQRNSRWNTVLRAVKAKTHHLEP

IC50 [nM]	SMILES
110	O=C(NCc1ccc2occc2c1)[C@@H]1CCCN1S(=O)(=O)c1cc2cc(F)ccc2o1 [Example 74, (2S)-N-(benzofuran-5-ylmethyl)-1-(5-fluorobenzofuran-2-yl)sulfonyl-pyrrolidine-2-carboxamide]
47	O=C(NCc1ccc(-c2ccccc2)cc1)[C@@H]1CCCN1S(=O)(=O)c1cc2cc(F)ccc2o1 [Example 76, (2S)-1-(5-fluorobenzofuran-2-yl)sulfonyl-N-[(4-phenylphenyl)methyl]pyrrolidine-2-carboxamide]
15	O=C(NCc1cccc(-c2ccccc2)c1)[C@@H]1CCCN1S(=O)(=O)c1cc2cc(F)ccc2o1 [Example 77, (2S)-1-(5-fluorobenzofuran-2-yl)sulfonyl-N-[(3-phenylphenyl)methyl]pyrrolidine-2-carboxamide]
130	O=C(NCc1ccccc1-c1ccccc1)[C@@H]1CCCN1S(=O)(=O)c1cc2cc(F)ccc2o1 [Example 78, (2S)-1-(5-fluorobenzofuran-2-yl)sulfonyl-N-[(2-phenylphenyl)methyl]pyrrolidine-2-carboxamide]
1.2	O=C(NCc1cccc(-c2ccc(C(F)(F)F)cn2)c1)[C@@H]1CCCN1S(=O)(=O)c1cc2ccccc2o1 [Example 80, (2S)-1-(benzofuran-2-ylsulfonyl)-N-[[3-[5-(trifluoromethyl)-2-pyridyl]phenyl]methyl]pyrrolidine-2-carboxamide]
1.2	O=C(NCc1cc(-c2ccc(C(F)(F)F)cc2)ncn1)[C@@H]1CCCN1S(=O)(=O)c1cc2ccccc2o1 [Example 84, (2S)-1-(benzofuran-2-ylsulfonyl)-N-[[6-[4-(trifluoromethyl)phenyl]pyrimidin-4-yl]methyl]pyrrolidine-2-carboxamide]
20	O=C(NCc1cncc(-c2ccc(C(F)(F)F)nc2)c1)[C@@H]1CCCN1S(=O)(=O)c1cc2ccccc2o1 [Example 86, (2S)-1-(benzofuran-2-ylsulfonyl)-N-[[5-[6-(trifluoromethyl)-3-pyridyl]-3-pyridyl]methyl]pyrrolidine-2-carboxamide]
0.41	O=C(NCc1cccc(-c2ccc(C(F)(F)F)nc2)c1)[C@@H]1CCCN1S(=O)(=O)c1cc2cc(F)ccc2o1 [Example 88, (2S)-1-(5-fluorobenzofuran-2-yl)sulfonyl-N-[[3-[6-(trifluoromethyl)-3-pyridyl]phenyl]methyl]pyrrolidine-2-carboxamide]
0.38	O=C(NCc1cccc(-c2ccc(C(F)(F)F)cn2)c1)[C@@H]1CCCN1S(=O)(=O)c1cc2cc(F)ccc2o1 [Example 89, (2S)-1-(5-fluorobenzofuran-2-yl)sulfonyl-N-[[3-[5-(trifluoromethyl)-2-pyridyl]phenyl]methyl]pyrrolidine-2-carboxamide]
0.84	O=C(NCc1cc(-c2ccc(C(F)(F)F)cc2)ncn1)[C@@H]1CCCN1S(=O)(=O)c1cc2cc(F)ccc2o1 [Example 90, (2S)-1-(5-fluorobenzofuran-2-yl)sulfonyl-N-[[6-[4-(trifluoromethyl)phenyl]pyrimidin-4-yl]methyl]pyrrolidine-2-carboxamide]
2.2	O=C(NCc1cccc(-c2ccc(C(F)(F)F)nc2)c1)[C@@H]1CCCN1S(=O)(=O)c1cc2c(F)cccc2o1 [Example 92, (2S)-1-(4-fluorobenzofuran-2-yl)sulfonyl-N-[[3-[6-(trifluoromethyl)-3-pyridyl]phenyl]methyl]pyrrolidine-2-carboxamide]
23	O=C(NCc1cccc(-c2ccc(C(F)(F)F)nc2)c1)[C@@H]1[C@@H](O)CCN1S(=O)(=O)c1cc2cc(F)ccc2o1 [Example 93, (2S,3S)-1-(5-fluorobenzofuran-2-yl)sulfonyl-3-hydroxy-N-[[3-[6-(trifluoromethyl)-3-pyridyl]phenyl]methyl]pyrrolidine-2-carboxamide]
11	O=C(NCc1cccc(-c2ccc(C(F)(F)F)cn2)c1)[C@@H]1[C@@H](O)CCN1S(=O)(=O)c1cc2cc(F)ccc2o1 [Example 94, (2S,3S)-1-(5-fluorobenzofuran-2-yl)sulfonyl-3-hydroxy-N-[[3-[5-(trifluoromethyl)-2-pyridyl]phenyl]methyl]pyrrolidine-2-carboxamide]
5.4	O=C(NCc1ccnc(-c2ccc(C(F)(F)F)cc2)c1)[C@@H]1[C@@H](O)CCN1S(=O)(=O)c1cc2cc(F)ccc2o1 [Example 95, (2S,3S)-1-(5-fluorobenzofuran-2-yl)sulfonyl-3-hydroxy-N-[[2-[4-(trifluoromethyl)phenyl]-4-pyridyl]methyl]pyrrolidine-2-carboxamide]
250	CN(C)c1cc(-c2cccc(CNC(=O)[C@@H]3CCCN3S(=O)(=O)c3cc4cc(F)ccc4o3)c2)ccn1 [Example 96, (2S)-N-[[3-[2-(dimethylamino)-4-pyridyl]phenyl]methyl]-1-(5-fluorobenzofuran-2-yl)sulfonyl-pyrrolidine-2-carboxamide]
4	O=C(NCc1ccnc(-c2ccc(C(F)(F)F)cc2)c1)[C@@H]1CCCN1S(=O)(=O)c1cc2c(F)cccc2o1 [Example 97, (2S)-1-(4-fluorobenzofuran-2-yl)sulfonyl-N-[[2-[4-(trifluoromethyl)phenyl]-4-pyridyl]methyl]pyrrolidine-2-carboxamide]

IC50 [nM]	SMILES
0.76	O=C(NCc1ccnc(-c2ccc(C(F)(F)F)cc2)c1)[C@@H]1C=CCN1S(=O)(=O)c1cc2cc(F)ccc2o1 [Example 98, (2S)-1-(5-fluorobenzofuran-2-yl)sulfonyl-N-[[2-[4-(trifluoromethyl)phenyl]-4-pyridyl]methyl]-2,5-dihydropyrrole-2-carboxamide]
13	O=C(NCc1ccnc(-c2ccc(C(F)(F)F)cc2)c1)[C@@H]1CC(F)(F)CN1S(=O)(=O)c1cc2cc(F)ccc2o1 [Example 99, (2S)-4,4-difluoro-1-(5-fluorobenzofuran-2-yl)sulfonyl-N-[[2-[4-(trifluoromethyl)phenyl]-4-pyridyl]methyl]pyrrolidine-2-carboxamide]
1.6	O=C(NCc1cccc(-c2ccc(C(F)(F)F)nc2)c1)[C@@H]1CCN1S(=O)(=O)c1cc2cc(F)ccc2o1 [Example 100, (2S)-1-(5-fluorobenzofuran-2-yl)sulfonyl-N-[[3-[6-(trifluoromethyl)-3-pyridyl]phenyl]methyl]azetidine-2-carboxamide]
27	C[C@H](NS(=O)(=O)c1cc2ccccc2o1)C(=O)NCc1cccc(-c2ccc(C(F)(F)F)nc2)c1 [Example 101, (2S)-2-(benzofuran-2-ylsulfonylamino)-N-[[3-[6-(trifluoromethyl)-3-pyridyl]phenyl]methyl]propanamide]
28	C[C@H](NS(=O)(=O)c1cc2ccccc2o1)C(=O)NCc1cccc(-c2ccc(C(F)(F)F)cn2)c1 [Example 102, (2S)-2-(benzofuran-2-ylsulfonylamino)-N-[[3-[5-(trifluoromethyl)-2-pyridyl]phenyl]methyl]propanamide]
56	C[C@H](NS(=O)(=O)c1cc2ccccc2o1)C(=O)NCc1ccnc(-c2ccc(C(F)(F)F)cc2)c1 [Example 103, (2S)-2-(benzofuran-2-ylsulfonylamino)-N-[[2-[4-(trifluoromethyl)phenyl]-4-pyridyl]methyl]propanamide]
14	C[C@H](NS(=O)(=O)c1cc2ccccc2o1)C(=O)NCc1cc(-c2ccc(C(F)(F)F)cc2)ncn1 [Example 104, (2S)-2-(benzofuran-2-ylsulfonylamino)-N-[[6-[4-(trifluoromethyl)phenyl]pyrimidin-4-yl]methyl]propanamide]
68	C[C@H](NS(=O)(=O)c1cc2ccccc2o1)C(=O)NCc1cc(-c2ccc(C(F)(F)F)nc2)ccn1 [Example 105, (2S)-2-(benzofuran-2-ylsulfonylamino)-N-[[4-[6-(trifluoromethyl)-3-pyridyl]-2-pyridyl]methyl]propanamide]
10	C[C@H](NS(=O)(=O)c1cc2cc(F)ccc2o1)C(=O)NCc1cccc(-c2ccc(C(F)(F)F)nc2)c1 [Example 106, (2S)-2-[(5-fluorobenzofuran-2-yl)sulfonylamino]-N-[[3-[6-(trifluoromethyl)-3-pyridyl]phenyl]methyl]propanamide]
6.9	C[C@H](NS(=O)(=O)c1cc2cc(F)ccc2o1)C(=O)NCc1cccc(-c2ccc(C(F)(F)F)cn2)c1 [Example 107, (2S)-2-[(5-fluorobenzofuran-2-yl)sulfonylamino]-N-[[3-[5-(trifluoromethyl)-2-pyridyl]phenyl]methyl]propanamide]
13	C[C@H](NS(=O)(=O)c1cc2cc(F)ccc2o1)C(=O)NCc1ccnc(-c2ccc(C(F)(F)F)cc2)c1 [Example 108, (2S)-2-[(5-fluorobenzofuran-2-yl)sulfonylamino]-N-[[2-[4-(trifluoromethyl)phenyl]-4-pyridyl]methyl]propanamide]
4.7	C[C@H](NS(=O)(=O)c1cc2cc(F)ccc2o1)C(=O)NCc1cc(-c2ccc(C(F)(F)F)cc2)ncn1 [Example 109, (2S)-2-[(5-fluorobenzofuran-2-yl)sulfonylamino]-N-[[6-[4-(trifluoromethyl)phenyl]pyrimidin-4-yl]methyl]propanamide]
17	C[C@H](NS(=O)(=O)c1cc2cc(F)ccc2o1)C(=O)NCc1cc(-c2ccc(C(F)(F)F)nc2)ccn1 [Example 110, (2S)-2-[(5-fluorobenzofuran-2-yl)sulfonylamino]-N-[[4-[6-(trifluoromethyl)-3-pyridyl]-2-pyridyl]methyl]propanamide]
130	Cc1ccc2oc(S(=O)(=O)N3CCC[C@H]3C(=O)NCc3cccc(-c4ccc(C(F)(F)F)nc4)c3)cc2c1 [Example 111, (2S)-1-(5-methylbenzofuran-2-yl)sulfonyl-N-[[3-[6-(trifluoromethyl)-3-pyridyl]phenyl]methyl]pyrrolidine-2-carboxamide]
270	O=C(NCc1ccnc(-c2ccccc2)c1)[C@@H]1CCCN1S(=O)(=O)c1cc2ccccc2o1 [Example 112, (2S)-1-(benzofuran-2-ylsulfonyl)-N-[(2-phenyl-4-pyridyl)methyl]pyrrolidine-2-carboxamide]
